Measurements as given in patent publication US20100086615A1, “AGENT FOR TREATMENT OF PULMONARY DISEASE” (KYUSHU UNIVERSITY, NATIONAL UNIVERSITY CORPORATION, priority 2007, published 2010).

Test system: LPS-induced acute lung injury mice
Test: Intratracheal administration in LPS-induced acute lung injury model; cells counted in bronchoalveolar lavage fluid
Assay type: in vivo, mice (male BALB/c)
Conditions: non-polymer-incorporated solution in saline (50 μL), intratracheal, 0.2, 2 or 20 μg/body; n=8

O=C([O-])C[C@H](O)C[C@H](O)/C=C/c1c(C2CC2)nc2ccccc2c1-c1ccc(F)cc1.O=C([O-])C[C@H](O)C[C@H](O)/C=C/c1c(C2CC2)nc2ccccc2c1-c1ccc(F)cc1.[Ca+2] [pitavastatin calcium]
Effect of inhibiting migration of inflammatory cells (result in words): did not exhibit the effect of inhibiting migration of inflammatory cells
